Measured values as given in patent US11179407B2, “Method for synthetically producing arabinogalactan compounds derived from plants and uses of said compounds for the prophylaxis of allergic reactions” (Forschungszentrum Borstel Leibniz-Zentrum für Medizin und …, priority 2015, dated 2021).

What was measured:
[1] = tested on: IL-5 and IL-13 production by spleen cells; experiment: in vitro cytokine production (IL-5, IL-13) of mouse splenocytes re-stimulated with OVA after in vivo treatment; design: species or system mouse (BALB/c); conditions: FIG. 3, i.n. treatment during sensitization and challenge
Protocol: (§1) Mice were sensitized by intraperitoneal injection of 20 μg ovalbumin (OVA; GradeV; Sigma, St. Louis, Mo.) emulsified in 2.2 mg aluminum hydroxide (ImjectAlum; Pierce, Rockford, Ill.) in a total volume of 200 μl on days 1 and 14. On days 28 and 38 mice were challenged via the airways with 1% OVA aerosol for 20 min using a PARI-Boy aerosol generator.
(§2) Mice were treated with the synthetic substances during the sensitization phase. Substances were administered intranasally in 50 μl of PBS. Mice were treated 14 times beginning on the day of the first OVA injection and the last treatment six days before the second OVA-aerosol challenge. Control groups were sensitized as described above and treated 14 times with phosphate buffered saline (PBS).
Spleens were harvested 3 days after the second aerosol challenge. Single cell suspensions were prepared by mechanical disruption and erythrocytes were lysed. Spleen cells were then cultured at a concentration of 5×10^6/ml in complete tissue culture medium (CTCM) (RPMI 1640 with 10% fetal calf serum (FCS), 2 mM L-glutamine, 100 U/ml penicillin, 100 μg/ml streptomycin, all from Biochrom, Berlin, Germany). To stimulate specific cytokine production OVA was added to a final concentration of 50 μg/ml. […] Levels of IL-5 and IL-13 were assessed by using optEIA kits (BD Biosciences, Heidelberg, Germany) according to the manufacturer's instructions.

IgE = experiment: total IgE in BAL fluid by ELISA in OVA/Alum mouse model; type: in vivo, mouse (BALB/c); conditions: FIG. 3, i.n. treatment
Protocol: as §1, §2
Blood was collected by tail vein puncture two days after the second aerosol challenge. BAL was collected as described above. Levels of total IgE in serum or BAL fluid were determined by ELISA (Ebioscience). Levels of BSA-specific IgG1 were determined by indirect ELISA. Briefly, plates were coated with 50 μg/ml BSA followed by blocking with 1% low fat milk powder. The serum was diluted 1/100 in PBS and incubated on the BSA coated wells for 1 h, followed by detection of bound antibodies by alkaline phosphatase coupled rat anti mouse IgG1 (BDbiosciences).

[2] = tested on: allergic airway inflammation; experiment: mouse model of allergic airway inflammation (OVA/Alum sensitization, OVA aerosol challenge): BAL cells and lung sections; type: in vivo, mouse (BALB/c)
Protocol: Female BALB/c mice (Charles River, Sulzfeld, Germany) aged 7-8 weeks were used and acclimated to the animal facility for 14 days prior to experiments. Animals had access to food and water ad libitum. All experimental procedures were approved by the responsible animal ethics committees. Mice were sensitized by intraperitoneal injection of 20 μg ovalbumin (OVA; GradeV; Sigma, St. Louis, Mo.) emulsified in 2.2 mg aluminum hydroxide (ImjectAlum; Pierce, Rockford, Ill.) in a total volume of 200 μl on days 1 and 14. On days 28 and 38 mice were challenged via the airways with 1% OVA aerosol for 20 min using a PARI-Boy aerosol generator. Mice were treated with the synthetic substances during the sensitization phase. Substances were administered intranasally in 50 μl of PBS. Mice were treated 14 times beginning on the day of the first OVA injection and the last treatment six days before the second OVA-aerosol challenge. Control groups were sensitized as described above and treated 14 times with phosphate buffered saline (PBS). Three days after OVA challenge lungs were lavaged via a tracheal tube with 2×1 ml PBS, and leukocytes in the lavage fluid were counted. After centrifugation, BAL fluid was frozen for further analysis. […] The percentages of eosinophils, lymphocytes and macrophages in BAL samples were determined by light microscopy. […]

For OCC1O[C@@H](OCC2O[C@@H](OCC3O[C@@H](OCCCCCc4ccc(N=C=S)cc4)C(O)C(O)[C@H]3O)C(O)C(O[C@H]3O[C@@H](CO[C@@H]4O[C@@H](CO)C(O)C4O)C(O)C3O)[C@H]2O)C(O)C(O)[C@H]1O (stereo partly shown) [Araf2Galp3], the “Th2 response as measured by in vitro production of IL-5 and IL-13 by spleen cells” value [1] was “not able to reduce these parameters significantly”, the IgE production (IgE) was “not able to reduce these parameters significantly” and the eosinophilic airway inflammation ([2]; FIG. 3, i.n. treatment, BAL) was “not able to reduce these parameters significantly”. For the same molecule, the goblet cell metaplasia ([2]; FIG. 3 experiment, determined in lung sections) was “not able to reduce these parameters significantly”.
